Test results reported in patent publication US7202265B2, “Indolinone combinatorial libraries and related products and methods for the treatment of disease” (Sugen, Inc., priority 1997, dated 2007).

These compounds were tested on human MET (assay: MET biochemical kinase assay).
Set-up: concentration or dose not given beside the values
Excerpt: (d) MET Biochemical Kinase Assay
A met biochemical kinase assay may be performed for met generally as described above for other kinases by substituting that or the other kinases. In particular, ELISA plates are coated with goat anti-rabbit Fc antibodies, which are used to capture commercially available (from Santa Cruz Biotechnology) rabbit polyclonal antibodies to the cytoplasmic domain of human MET. […] The chimeric receptors, or MET, from these lysates are captured on the antibody coated plates. After washing away extraneous proteins, test compounds are added and an in vitro kinase assay is performed by addition of an appropriate kinase buffer (containing ATP, divalent metal ions, etc.). Incorporation of phosphate into the captured receptors is detected with an anti-phosphotyrosine antibody conjugate with horse radish peroxidase using TMB as a substrate for calorimetric detection.

SMILES | Met Kinase % Inhibition [%]
CNS(=O)(=O)c1ccc2c(c1)C(=Cc1ccc(F)cc1Cl)C(=O)N2 [10719/D09] | 13.0
CNS(=O)(=O)c1ccc2c(c1)C(=Cc1ccc(O)c(O)c1O)C(=O)N2 [10723/D02] | 93.0
O=C1Nc2ccc(S(=O)(=O)N3CCOCC3)cc2C1=Cc1ccc(O)c(O)c1O [10723/F02] | 99.0
Cc1c(Br)ccc2c1C(=Cc1ccc(N3CCOCC3)cc1)C(=O)N2 [10725/C08] | 28.0
CNS(=O)(=O)c1ccc2c(c1)C(=Cc1cc(OC)ccc1O)C(=O)N2 [10720/D10] | 51.0
COc1cc(OC)c(C=C2C(=O)Nc3c(Br)cc(Br)cc32)c(OC)c1 [10719/A06] | −7.0
COc1ccc(C=C2C(=O)Nc3ccc(S(=O)(=O)Nc4ccc(C(F)(F)F)cc4)cc32)c(OC)c1 [10719/E04] | 3.1
CNS(=O)(=O)c1ccc2c(c1)C(=Cc1ccc(Cl)c([N+](=O)[O-])c1)C(=O)N2 [10718/D08] | 2.3
O=C1Nc2ccc(I)cc2C1=Cc1cc2c(cc1Cl)OCO2 [10727/B06] | 91.0
Cc1c(Br)ccc2c1C(=Cc1sccc1Br)C(=O)N2 [10725/C02] | 6.3
CNS(=O)(=O)c1ccc2c(c1)C(=Cc1ccc(N3CCN(C=O)CC3)cc1)C(=O)N2 [10725/D07] | 37.0
CC(C)(C)c1cc(C=C2C(=O)Nc3ccc(CCCl)cc32)cc([N+](=O)[O-])c1O [10722/G02] | 43.0
O=C1Nc2ccc(S(=O)(=O)N3CCOCC3)cc2C1=Cc1ccccc1Sc1ccc(Cl)cc1 [10727/F05] | 6.0
CNS(=O)(=O)c1ccc2c(c1)C(=Cc1sccc1Br)C(=O)N2 [10725/D02] | 14.0
Cc1c(Br)ccc2c1C(=Cc1nn(C)cc1Cl)C(=O)N2 [10721/C03] | 6.2
O=C1Nc2ccc(S(=O)(=O)Nc3ccc(C(F)(F)F)cc3)cc2C1=Cc1ccc(Br)o1 [10726/E05] | 71.0
COc1cccc(C=C2C(=O)Nc3ccc(S(=O)(=O)Nc4ccc(C(F)(F)F)cc4)cc32)c1OC [10727/E11] | −5.4
Cc1c(Br)ccc2c1C(=Cc1ccc(O)c(C(C)(C)C)c1)C(=O)N2 [10721/C09] | −4.7
O=C1Nc2ccc(CCCl)cc2C1=Cc1ccc(C(=O)O)cc1 [10722/G05] | 9.7

Other lines, results leading:

Met Kinase % Inhibition [%] | SMILES
4.1 | COc1c(C)cc(C=C2C(=O)Nc3ccc(Br)c(C)c32)cc1C [10733/C06]
−3.0 | COc1cccc(C=C2C(=O)Nc3ccc(S(=O)(=O)N4CCOCC4)cc32)c1OC [10727/F11]
−2.1 | CC(C)(C)c1cc(C=C2C(=O)Nc3ccc(S(=O)(=O)Nc4ccc(C(F)(F)F)cc4)cc32)ccc1OCc1ccccc1 [10732/E06]
2.2 | COc1ccc(C=C2C(=O)Nc3ccc(S(=O)(=O)Nc4ccc(C(F)(F)F)cc4)cc32)cc1C(C)(C)C [10732/E05]
40.0 | O=C1Nc2ccc(S(=O)(=O)Nc3ccc(C(F)(F)F)cc3)cc2C1=Cc1c(F)cccc1C(F)(F)F [10728/E09]
80.0 | CNS(=O)(=O)c1ccc2c(c1)C(=Cc1cc(Br)cc(OC)c1O)C(=O)N2 [10733/D08]
7.1 | COc1ccc(OC)c(C=C2C(=O)Nc3ccc(CCCl)cc32)c1 [10728/G02]
49.0 | CC(=O)n1cc(C=C2C(=O)Nc3ccc(S(=O)(=O)Nc4ccc(C(F)(F)F)cc4)cc32)c2ccccc21 [10730/E05]
68.0 | O=C1Nc2c(Br)cc(Br)cc2C1=Cc1cc(Cl)ccc1O [10734/A04]
69.0 | O=C1Nc2c(Br)cc(Br)cc2C1=Cc1cc2ccccc2nc1Cl [10730/A08]
88.0 | CNS(=O)(=O)c1ccc2c(c1)C(=Cc1ccc(O)c(Br)c1)C(=O)N2 [10734/D09]
8.5 | Cc1cc(C=C2C(=O)Nc3ccc(CCCl)cc32)cc(C)c1OCc1ccccc1 [10733/G07]
